Data taken from publication PMC10703885 (Cell Death & Disease, 2023).
pIC50: −log10 of the molar value. Where two headings read alike, the source gives them in different places.

What was measured:
HCT116 xenograft = HCT116 xenograft model in nude mice; assay type: in vivo, BALB/c nude mice
Experimental: (§1) Male BALB/c nude mice (5–6 weeks) were purchased from the Jiesijie Experimental Animal Co. Ltd (Shanghai, China). All mice were maintained under SPF conditions and at constant temperature (25 °C) and relative humidity (65%) with a 12 h light/dark cycle. HCT116 cells (1 × 10^6) were inoculated into 6–7 weeks-old mice subcutaneously. Tumor volumes were evaluated by calipers and calculated using the standard formula: volume = length × width^2 × 0.5. Once tumor volume exceeded approximately 100 mm^3. […] Tumor volume was measured every 2 days. The protocols for animal care and euthanasia were approved by the Institutional Animal Care and Use Committee of Shanghai Ocean University (Shanghai, China).

[1] = system: acetylated H3/H4 protein in HCT116 cells; assay: Western blot of acetylated H3/H4; assay type: cell-based; settings: HCT116, 0.2, 0.5 and 1 μM, 24 h, compared with SAHA 1 μM
Experimental: (§2) Western blot analysis was performed as in our previous reports. The cells were lysed in RIPA buffer with a complete protease inhibitor cocktail for 10 min on ice followed by centrifugation at 4 °C. The concentration of proteins was determined by the BCA Protein Kit (TIANGEN, Shanghai, China). Equal amounts of total proteins were resuspended in loading buffer, boiled at 100 °C for 5 min, and separated by 10–15% […] gel electrophoresis (SDS-PAGE). Proteins were transferred onto PVDF membranes (Merck Millipore, #IPFL00010, Germany), then the membranes were blocked with 5% non-fat dry milk, and the membranes were incubated with indicated primary antibodies diluted in BSA buffer, overnight at 4 °C. The membranes were washed three times in TBST followed by 1 h incubation with secondary antibodies conjugated with horseradish peroxidase (HRP) at room temperature. Then the membranes were washed before enhanced chemiluminescence. Immunoblots were visualized with the Bio-Rad ChemiDoc XRS system. Quantification was directly performed on the blot using the Image Lab software.

[2] = system: acetylated H3/H4 protein in HT29 cells; assay: Western blot of acetylated H3/H4; assay type: cell-based; settings: HT29, 0.2, 0.5 and 1 μM, 24 h, compared with SAHA 1 μM
Experimental: as §2

[3] = Body weight of xenograft mice; assay type: in vivo, BALB/c nude mice; settings: 10 mg/kg/d ip over 21 days
Experimental: as §1

HT29 cells [4] = assay: CCK-8 cell viability assay; assay type: cell-based; settings: Homo sapiens, HT-29, 72 h
Experimental: (§3) The cells were cultured in 96-well plates at a density of 5 × 10^3 cells/well. Cell viability was assessed with CCK-8 Kit at indicated time post-treatment according to the manufacturer’s instructions. To estimate the viability of the cells, the absorbance of 450 nm (OD450) was measured with a Microplate Reader (BIO-TEK, Inc., Winooski, VT, United States). The IC50 value was calculated by GraphPad Prism 8.0 (San Diego, CA, United States) software.

HCT116 cells [5] = assay: CCK-8 cell viability assay; assay type: cell-based; settings: for pIC50: Homo sapiens
Experimental: as §3

HT29 cells [6] = assay: Colony formation assay; assay type: cell-based; settings: HT29, 0.2, 0.5 and 1 μM, 14 days
Experimental: (§4) The culture medium was refreshed every other day. Cells were then continuously incubated in a new fresh medium for 10–14 days, the colonies were fixed with methanol for 15 min, stained with 0.5% crystal violet for 15 min, and photographed. Colonies were manually counted using ImageJ software.

HCT116 cells [7] = assay: Colony formation assay; assay type: cell-based; settings: HCT116, 0.2, 0.5 and 1 μM, 14 days
Experimental: as §4

[8] = system: normal renal epithelial 293T cells; assay: CCK-8 cell viability assay (normal cells); assay type: cell-based; settings: low concentration of HR488B (0.1-1 μM), 72 h
Experimental: as §3

Row | pIC50 (HT29 cells [4]) | pIC50 (HCT116 cells [5]; HCT-116, HCT116 cells, 72 h, CCK-8, read-out: IC50) | pIC50 (HCT116 cells [5]; HCT-116, 72 h) | SMILES | average tumor weight (HCT116 xenograft; 10 mg/kg ip, compared with control and SAHA-treated group) | tumor volume (HCT116 xenograft; 10 mg/kg/d ip over 21 days, compared with control group and SAHA treatment group) | acetylation of H3 and H4 [1] | acetylation of H3 and H4 [2] | body weight of mice [3] | inhibitory effect on cell viability (in-house HDACi library screen) (HCT116 cells [5]; HCT116 cells, 2.5 μM, 72 h, CCK-8) | number and size of colonies (HT29 cells [6]) | number and size of colonies (HCT116 cells [7]) | cellular toxicity of 293T cells [8]
1 | 6.23 | 6.77 | – | COc1ccc(N(Cc2nc(-c3ccccc3Cl)cs2)C(=O)CCCCCC(=O)NO)cc1 [HR488B] | obviously lower | marked reduction in tumor volume | significantly increased the acetylation of H3 and H4 in a dose-dependent manner | significantly increased the acetylation of H3 and H4 in a dose-dependent manner | did not decrease notably | optimum inhibitory effect | obviously reduced the number and size of the colonies | obviously reduced the number and size of the colonies | did not observe any significant cellular toxicity
2 | – | – | 5.67 | O=C(CCCCCCC(=O)Nc1ccccc1)NO [SAHA, reference compound] | – | – | – | – | did not decrease notably | – | – | – | –
